Measured values reported in patent US3950350A, “Penam-dimethylsulfoxide complex” (Pfizer Inc., priority 1974, dated 1976).
In brackets after ≈: the same amount, converted by molar mass. Like-named read-outs stand apart in the source and are kept apart here.

Experiments:
Streptococcus pyogenes = experiment: In vitro minimum inhibitory concentration (MIC), two-fold serial dilution in Brain-Heart Infusion broth; assay type: cell-based; conditions: read-out: MIC vs. Strep. pyogenes
Protocol: The antibacterial penam compounds, 6, show activity against a wide variety of gram-positive and gram-negative bacteria. […] The broth is inoculated with the bacterial culture, and with the test antibiotic, and then it is incubated overnight. On the next day, the test is read visually. The minimum inhibitory concentration (MIC) is the lowest concentration of antibiotic which prevents turbidity, i.e., which prevents growth of the microorganism. In vitro activities of several of the penam compounds of the invention are presented later in this specification.
In vitro antibacterial activities for a number of compounds prepared by the procedure of Example 4 are presented below.
In Table II, the minimum inhibitory concentrations (MIC's) of numerous compounds against a strain of Streptococcus pyogenes, are reported.

Escherichia coli = experiment: In vivo protection of mice against systemic infection by lethal intraperitoneal inoculum of Escherichia coli; design: species or system infected mice; Escherichia coli; conditions: multiple dosing
Protocol: (§1) These antibacterial penam compounds are also active in vivo. In determining such activity, the test antibiotic is administered to infected mice, using a multiple dosing regimen. The severity of the infection varies from about one to about ten times the dose needed to kill 100% of the mice under the conditions of the test. At the end of the test, the activity of a compound is assessed by counting the number of survivors among the treated animals. Both the subcutaneous (SC) and oral (PO) dosage routes are used. Results are given in Table I for two compounds produced from the novel intermediate of the invention. The ability of the compounds to protect mice against systemic infections caused by a lethal intraperitoneal inoculum of Staphylococcus aureus or of Escherichia coli is presented.

Staphylococcus aureus = experiment: In vivo protection of mice against systemic infection by lethal intraperitoneal inoculum of Staphylococcus aureus; design: species or system infected mice; Staphylococcus aureus; conditions: SC, multiple dosing
Protocol: as §1

[1] = two-fold serial dilution, Brain-Heart Infusion broth, overnight incubation

MIC (Streptococcus pyogenes; [1]) [µg/mL]	Compound	other results
0.39 (≈ 1.01 µM)	CC1(C)SC2C(NC(=O)[C@H](N)Cc3ccccc3)C(=O)N2C1c1nn[nH]n1 (stereo partly drawn) [D-2-amino-3-phenylpropionyl]	
< 0.1	CC1(C)S[C@@H]2C(NC(=O)Cc3ccccc3)C(=O)N2C1c1nnn[nH]1 (stereo partly drawn) [2-phenylacetyl, 6-(2-phenylacetamido)-2,2-dimethyl-3-(5-tetrazolyl)penam]	
< 0.1	Cc1onc(-c2ccccc2Cl)c1C(=O)NC1C(=O)N2C1SC(C)(C)C2c1nn[nH]n1 (stereo not drawn)	
	CC1(C)SC2C(NC(=O)Oc3ccccc3)C(=O)N2C1c1nn[nH]n1 (stereo not drawn) [phenoxycarbonyl]	MIC (Streptococcus pyogenes): < 0.1 µg/mL
	CC1(C)S[C@@H]2C(NC(=O)[C@H](N)c3ccsc3)C(=O)N2C1c1nnn[nH]1 (stereo partly drawn) [6-(D-2-amino-2-[3-thienyl]acetamido)-2,2-dimethyl-3-(5-tetrazolyl)penam]	Percentage Protection E. coli (Escherichia coli; 25 mg./kg., SC): 20 Percentage; Percentage Protection E. coli (Escherichia coli; 50 mg./kg., SC): 20 Percentage; Percentage Protection E. coli (Escherichia coli; 200 mg./kg., PO): 0 Percentage; Percentage Protection S. aureus (Staphylococcus aureus; 6 mg./kg.): 50 Percentage; Percentage Protection S. aureus (Staphylococcus aureus; 12 mg./kg.): 50 Percentage; Percentage Protection S. aureus (Staphylococcus aureus; 25 mg./kg.): 60 Percentage; Percentage Protection S. aureus (Staphylococcus aureus; 50 mg./kg.): 40 Percentage
0.39 (≈ 0.936 µM)	CN(C)c1ccc(C(N)C(=O)NC2C(=O)N3C2SC(C)(C)C3c2nn[nH]n2)cc1 (racemic)	
< 0.1	CC1(C)SC2C(NC(=O)C=CC(N)=O)C(=O)N2C1c1nn[nH]n1 (stereo not drawn) [3-(carbamoyl)acryloyl]	
< 0.1	CC1(C)SC2C(NC(=O)[C@H](N)c3cccc(F)c3)C(=O)N2C1c1nn[nH]n1 (stereo partly drawn) [D-2-amino-2-(m-fluorophenyl)acetyl]	
< 0.1	CC1(C)SC2C(NC(=O)C(N)c3cc(O)ccc3Br)C(=O)N2C1c1nn[nH]n1 (racemic)	
< 0.1	CC1(C)SC2C(NC(=O)[C@H](N)c3cccc(O)c3)C(=O)N2C1c1nn[nH]n1 (stereo partly drawn) [D-2-amino-2-(m-hydroxyphenyl)acetyl]	
0.1 (≈ 0.264 µM)	CC1(C)SC2C(NC(=O)[C@H](N)c3cccs3)C(=O)N2C1c1nn[nH]n1 (stereo partly drawn) [D-2-amino-2-(2-thienyl)acetyl]	
0.2 (≈ 0.589 µM)	CC(C)[C@@H](N)C(=O)NC1C(=O)N2C1SC(C)(C)C2c1nn[nH]n1 (stereo partly drawn) [D-2-amino-3-methylbutyryl]	
< 0.1	CC1(C)SC2C(NC(=O)C(N=[N+]=[N-])c3ccccc3)C(=O)N2C1c1nn[nH]n1 (stereo not drawn) [2-azido-2-phenylacetyl]	
< 0.1	CC1(C)SC2C(NC(=O)CBr)C(=O)N2C1c1nn[nH]n1 (stereo not drawn) [2-bromoacetyl]	
25 (≈ 68.4 µM)	CC1(C)SC2C(NC(=O)C3(N)CCCCC3)C(=O)N2C1c1nn[nH]n1 (stereo not drawn) [1-aminocyclohexylcarbonyl]	
< 0.1	CC1(C)SC2C(NC(=O)C(N)c3ccc(O)c(O)c3)C(=O)N2C1c1nn[nH]n1 (racemic) [DL-2-amino-2-(3,4-dihydroxyphenyl)acetyl]	

MIC (Streptococcus pyogenes; [1]) [µg/mL]	Compound	other results
< 0.1	CC(=O)NC1C(=O)N2C1SC(C)(C)C2c1nn[nH]n1 (stereo not drawn) [acetyl]	
< 0.1	CC1(C)SC2C(NC(=O)OCc3ccccc3)C(=O)N2C1c1nn[nH]n1 (stereo not drawn) [benzyloxycarbonyl]	
	CC1(C)SC2C(NC(=O)CSc3ccncc3)C(=O)N2C1c1nn[nH]n1 (stereo not drawn) [2-(4-pyridylthio)acetyl]	MIC (Streptococcus pyogenes): < 0.1 µg/mL
< 0.1	CC1(C)SC2C(NC(=O)COc3ccccc3)C(=O)N2C1c1nn[nH]n1 (stereo not drawn) [2-phenoxyacetyl]	
< 0.1	CC1(C)S[C@@H]2C(N)C(=O)N2C1c1nnn[nH]1 (stereo partly drawn) [hydrogen, 6-Amino-2,2-dimethyl-3-(5-tetrazolyl)penam]	
0.78 (≈ 1.91 µM)	CC1(C)SC2C(NC(=O)C(N)c3cccc(Cl)c3)C(=O)N2C1c1nn[nH]n1 (racemic) [DL-2-amino-2-(m-chlorophenyl)acetyl]	
< 0.39	CC1(C)SC2C(NC(=O)Cn3cnnn3)C(=O)N2C1c1nn[nH]n1 (stereo not drawn) [2-(1-tetrazolyl)acetyl]	
0.1 (≈ 0.236 µM)	CC1(C)SC2C(NC(=O)[C@H](N)c3ccc(O)c(Cl)c3)C(=O)N2C1c1nn[nH]n1 (stereo partly drawn)	
< 0.2	COc1cccc(OC)c1C(=O)NC1C(=O)N2C1SC(C)(C)C2c1nn[nH]n1 (stereo not drawn) [2,6-dimethoxybenzoyl]	
< 0.1	CCN=C(NCC)SCC(=O)NC1C(=O)N2C1SC(C)(C)C2c1nn[nH]n1 (stereo not drawn) [2-(N,N'-diethylamidinothio)acetyl]	
< 0.1	CCOC(=O)NC1C(=O)N2C1SC(C)(C)C2c1nn[nH]n1 (stereo not drawn) [ethoxycarbonyl]	
< 0.1	CC1(C)SC2C(NC(=O)[C@@H](N)c3ccc(O)cc3)C(=O)N2C1c1nn[nH]n1 (stereo partly drawn) [L-2-amino-2-(p-hydroxyphenyl)acetyl]	
< 0.1	CC1(C)SC2C(NC(=O)C(N)c3ccc(Cl)cc3)C(=O)N2C1c1nn[nH]n1 (racemic) [DL-2-amino-2-(p-chlorophenyl)acetyl]	
< 0.1	CC1(C)SC2C(NC(=O)[C@H](N)c3ccccc3)C(=O)N2C1c1nn[nH]n1 (stereo partly drawn) [D-2-amino-2-phenylacetyl]	
0.1 (≈ 0.325 µM)	CC1(C)SC2C(NC(=O)CC#N)C(=O)N2C1c1nn[nH]n1 (stereo not drawn) [2-cyanoacetyl]	

Compound	MIC (Streptococcus pyogenes; [1]) [µg/mL]	other results
CC1(C)S[C@@H]2C(NC(=O)[C@H](N)c3ccc(O)cc3)C(=O)N2C1c1nnn[nH]1 (stereo partly drawn) [6-(D-2-amino-2-[p-hydroxyphenyl]acetamido)-2,2-dimethyl-3-(5-tetrazolyl)penam]	< 0.1	Percentage Protection E. coli (Escherichia coli; 25 mg./kg., SC): 80 Percentage; Percentage Protection E. coli (Escherichia coli; 50 mg./kg., SC): 100 Percentage; Percentage Protection E. coli (Escherichia coli; 200 mg./kg., PO): 100 Percentage; Percentage Protection S. aureus (Staphylococcus aureus; 6 mg./kg.): 50 Percentage; Percentage Protection S. aureus (Staphylococcus aureus; 12 mg./kg.): 50 Percentage; Percentage Protection S. aureus (Staphylococcus aureus; 25 mg./kg.): 70 Percentage; Percentage Protection S. aureus (Staphylococcus aureus; 50 mg./kg.): 80 Percentage
